These results are taken from article PMC8347162, “A Cyclic BMP-2 Peptide Upregulates BMP-2 Protein-Induced Cell Signaling in Myogenic Cells” (Polymers, 2021).

Like-named read-outs stand apart in the source and are kept apart here. Positions of bridges follow the written chain, without caps; N, C: chain ends. Residues, ends and D or L forms follow the SMILES beside them.

For this assay, the target named is T1, BMPRII (Homo sapiens, UniProt Q13873).
T1 construct: purchased R&D
T1 sequence (Q13873 27-151 limits assumed): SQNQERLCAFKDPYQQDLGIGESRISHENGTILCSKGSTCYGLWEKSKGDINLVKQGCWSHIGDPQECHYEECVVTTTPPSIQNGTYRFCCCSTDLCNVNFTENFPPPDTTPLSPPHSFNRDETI
The experiment in a line: SPR binding of peptides to immobilized BMPRII. Conditions: for kon / koff: BMPRII immobilized on COOH5 chip (2000 RU), peptide injected 120 s at 5 μL/min, 5 min dissociation; for kon: read-out: Association Rate Constant ka; for koff: read-out: Dissociation Rate Constant kd. How it is done: SPR was performed using SensiQ discovery ((ICX Nomadics, Oklahoma City, OK, USA) SPR. For the affinity experiments, all the samples were dissolved in phosphate-buffered saline (PBS, pH 7.4) (UniRegion Bio-Tech, New Taipei City, Taiwan) containing 150 mM NaCl (St. Louis, MI, USA). The same buffer was also used as the running buffer. To immobilize the BMPRII, the active and reference flow cells of a COOH5 sensor chip (ICX Nomadics, Oklahoma City, OK, USA) carboxylic chip were activated with 1-ethyl-3-(3-(dimethylamino)-propyl) carbodiimide hydrochloride (EDC) and N-hydroxysuccinimide (NHS) (Cytiva, Marlborough, MA, USA) for 5 min. BMPRII protein diluted to 20 μg/mL with acetate buffer (pH4.5) (APOLO biochemical Inc., New York, NY, USA) was injected over the active cell for 3 min at 10 μL/min, resulting in an immobilization level of 2000 RU. Both the reference flow cell and active flow cell were blocked with ethanolamine (Bio Rad, Hercules, CA, USA), pH 8.5 for 6 min. The system was then switched to running buffer, and different concentrations of the peptide were injected for 120 s at 5 μL/min, with 5 min of dissociation. The binding data were analyzed using the BIA-evaluation software 3.0 (BIACORE, Uppasala, Sweden).
We first investigated the binding affinity of these five peptides for BMPRII using SPR. Each peptide was individually passed over a Sensiq […] chip pre-immobilized with BMPRII.

[1] abbreviates: BMPRII immobilized on COOH5 chip, PBS pH 7.4 with 150 mM NaCl, P-02 from saturation binding curve, read-out: Equilibrium Rate Constant KD.

As to `CC[C@H](C)[C@H](NC(=O)[C@H](C)NC(=O)[C@H](CO)NC(=O)[C@H](CC(C)C)NC(=O)[C@H](CCC(=O)O)NC(=O)[C@@H](NC(=O)[C@@H]1CCCN1C(=O)[C@@H](NC(=O)[C@H](CO)NC(=O)[C@H](CO)NC(=O)[C@H](C)NC(=O)[C@H](CCCCN)NC(=O)[C@@H]1CCCN1C(=O)[C@@H](NC(=O)[C@@H](N)CCCCN)[C@@H](C)CC)C(C)C)[C@@H](C)O)C(=O)N[C@@H](CO)C(=O)N[C@H](C(=O)N[C@@H](CC(C)C)C(=O)N[C@@H](Cc1ccc(O)cc1)C(=O)N[C@@H](CC(C)C)C(N)=O)[C@@H](C)O` [P-01] (H-KIPKASSVPTELSAISTLYL-NH2), where the note is “PBS pH 7.4 with 150 mM NaCl”, the kon is 0.27 M⁻¹ s⁻¹ and the koff came to 0.0221 s⁻¹.
On to `CC[C@H](C)[C@@H]1NC(=O)[C@H](C)NC(=O)[C@H](CO)NC(=O)[C@H](CC(C)C)NC(=O)[C@H](CCC(=O)O)NC(=O)[C@H]([C@@H](C)O)NC(=O)[C@@H]2CCCN2C(=O)[C@H](C(C)C)NC(=O)[C@H](CO)NC(=O)[C@H](CO)NC(=O)[C@H](C)NC(=O)[C@H](CCCCN)NC(=O)[C@@H]2CCCN2C(=O)[C@H]([C@@H](C)CC)NC(=O)[C@H](CCCCN)NC(=O)[C@@H](N)CSSC[C@@H](C(N)=O)NC(=O)[C@H](CC(C)C)NC(=O)[C@H](Cc2ccc(O)cc2)NC(=O)[C@H](CC(C)C)NC(=O)[C@H]([C@@H](C)O)NC(=O)[C@H](CO)NC1=O` [P-05] (H-CKIPKASSVPTELSAISTLYLC-NH2; disulfide 1-22), for which, under “PBS pH 7.4 with 150 mM NaCl”, the kon is 37.8 M⁻¹ s⁻¹ and the koff is 0.000487 s⁻¹. For the same compound, the Kd under setting [1] amounted to 12.9 µM.
With `CC[C@H](C)[C@H](NC(=O)[C@H](C)NC(=O)[C@H](CO)NC(=O)[C@@H]1CSSC[C@H](N)C(=O)N[C@@H](CCCCN)C(=O)N[C@@H]([C@@H](C)CC)C(=O)N2CCC[C@H]2C(=O)N[C@@H](CCCCN)C(=O)N[C@@H](C)C(=O)N[C@@H](CO)C(=O)N[C@@H](CO)C(=O)N[C@@H](C(C)C)C(=O)N2CCC[C@H]2C(=O)N[C@@H]([C@@H](C)O)C(=O)N[C@@H](CCC(=O)O)C(=O)N[C@@H](CC(C)C)C(=O)N1)C(=O)N[C@@H](CO)C(=O)N[C@H](C(=O)N[C@@H](CC(C)C)C(=O)N[C@@H](Cc1ccc(O)cc1)C(=O)N[C@@H](CC(C)C)C(N)=O)[C@@H](C)O` [P-03] (H-CKIPKASSVPTELCSAISTLYL-NH2; disulfide 1-14), where the note is “PBS pH 7.4 with 150 mM NaCl”, the kon was 352 M⁻¹ s⁻¹ and the koff is 0.0333 s⁻¹.
As to “P-02: Cyclic disulfide BMP-2 peptide, N-terminal and C-terminal regions outside the cyclic structure (KIPKCSSVPTELSCISTLYL; not fully specified; Intramolecular disulfide Cys5-Cys14; probably C-terminal amide (Rink amide resin); Parent is BMP-2 mature 73-92 (offset +282) in the P)”, the Kd is, setting by setting: under setting [1], 80.6 µM; (as printed in text b26 without unit, read-out: equilibrium rate constant (KD) against BMPRII) 80.6 µM.
For the compound `CC[C@H](C)[C@@H]1NC(=O)[C@H](C)NC(=O)[C@H](CO)NC(=O)[C@H](CC(C)C)NC(=O)[C@H](CCC(=O)O)NC(=O)[C@H]([C@@H](C)O)NC(=O)[C@@H]2CCCN2C(=O)[C@H](C(C)C)NC(=O)[C@@H](NC(=O)[C@H](CO)NC(=O)[C@H](CO)NC(=O)[C@H](C)NC(=O)[C@H](CCCCN)NC(=O)[C@@H]2CCCN2C(=O)[C@@H](NC(=O)[C@@H](N)CCCCN)[C@@H](C)CC)CSSC[C@@H](C(N)=O)NC(=O)[C@H](CC(C)C)NC(=O)[C@H](Cc2ccc(O)cc2)NC(=O)[C@H](CC(C)C)NC(=O)[C@H]([C@@H](C)O)NC(=O)[C@H](CO)NC1=O` [P-04] (H-KIPKASSCVPTELSAISTLYLC-NH2; disulfide 8-22), where the note is “PBS pH 7.4 with 150 mM NaCl”, the kon worked out at 460 M⁻¹ s⁻¹ and the koff was found to be 0.0106 s⁻¹. Also, the Kd under setting [1] is 23.1 µM.
